Reference: patent publication US20030068808A1, “Methods for generating antibiotic resistant microbes and novel antibiotics” (priority 2001, published 2003)

Experiments:
Type in all cases: cell-based
BL21 cells = test: Half minimum inhibitory concentrations (MIC) on BL21 cells, titration analysis; conditions: half minimum inhibitory concentration on BL21 cells
[1] = tested on: bacterial cells expressing pT7PMS134/V5; test: Overnight growth in antibiotic, MMR defective bacteria expressing PMS2-134; conditions: overnight at 37° C., 10^7 cells in 5 ml LB broth plus antibiotic at 0.5X MIC
Description: (§1) Titration analysis found the following amounts to be effective in inhibiting bacterial growth in the presence of various compounds.
(§2) The next day, cultures were analyzed for cell growth in the presence or absence of antibiotics.

[2] = tested on: bacterial cells expressing the vector (pT7Ea); test: Overnight growth in antibiotic, vector control bacteria; conditions: overnight at 37° C., 10^7 cells in 5 ml LB broth plus antibiotic at 0.5X MIC
Description: as §1, §2

Row | Compound | 0.5X MIC (BL21 cells) [µg/mL] | Cell # (X10^9) (pT7PMS134V5) [1] | Cell # (pT7Ea) [2]
1 | CCn1cc(C(=O)O)c(=O)c2ccc(C)nc21 [Nalidixic Acid] | 7.10 | 0.97 X10^9 | 0
2 | CCn1cc(C(=O)O)c(=O)c2cc(F)c(N3CCNCC3)cc21 [Norfloxacin] | 0.13 | 1.40 X10^9 | 0
3 | CC1COc2c(N3CCN(C)CC3)c(F)cc3c(=O)c(C(=O)O)cn1c23 (stereo not shown) [Ofloxacin] | 0.13 | 1.20 X10^9 | 0
4 | CN(C)[C@@H]1C(O)=C(C(N)=O)C(=O)[C@@]2(O)C(O)=C3C(=O)c4c(O)cccc4[C@@](C)(O)[C@H]3C[C@@H]12 [Tetracycline] |  | 1.10 X10^9 | 0
5 | CN[C@H](CC(C)C)C(=O)N[C@H]1C(=O)N[C@@H](CC(N)=O)C(=O)N[C@H]2C(=O)N[C@H]3C(=O)N[C@H](C(=O)N[C@H](C(=O)O)c4cc(O)cc(O)c4-c4cc3ccc4O)[C@H](O)c3ccc(c(Cl)c3)Oc3cc2cc(c3O[C@@H]2O[C@H](CO)[C@@H](O)[C@H](O)[C@H]2O[C@H]2C[C@](C)(N)[C@H](O)[C@H](C)O2)Oc2ccc(cc2Cl)[C@H]1O [Vancomycin] | 250.0 |  | 0
